# Source: ChEMBL document CHEMBL1139069, “Novel antiproliferative analogs of the Taq DNA polymerase inhibitor catalpol” (2007)
# Experiments:
# Assay type in all cases: functional
# WiDr = assay: Antiproliferative activity against human WiDr cells after 48 hrs by SRB assay
# SW1573 [1] = assay: Antiproliferative activity against human SW1573 cells after 48 hrs by SRB assay; details: SW1573, 48 h
# A2780 = assay: Antiproliferative activity against human A2780 cells after 48 hrs by SRB assay; details: A2780, 48 h
# T47D = assay: Antiproliferative activity against human T47D cells after 48 hrs by SRB assay
# HBL-100 [2] = assay: Antiproliferative activity against human HBL100 cells after 48 hrs by SRB assay; details: HBL-100, 48 h
# SW1573 [3] = assay: Cell cycle arrest in human SW1573 cells assessed as accumulation at G0/G1 phase at 5 uM after 24 hrs by flow cytometry
# SW1573 [4] = assay: Cell cycle arrest in human SW1573 cells assessed as accumulation at G2/M phase at 10 uM after 24 hrs by flow cytometry
# HBL-100 [5] = assay: Cell cycle arrest in human HBL100 cells assessed as accumulation at S phase at 10 uM after 24 hrs by flow cytometry
# SW1573 [6] = assay: Cell cycle arrest in human SW1573 cells assessed as accumulation at G2/M phase at 5 uM after 24 hrs by flow cytometry
# HBL-100 [7] = assay: Cell cycle arrest in human HBL100 cells assessed as accumulation at G0/G1 phase at 10 uM after 24 hrs by flow cytometry
# SW1573 [8] = assay: Cell cycle arrest in human SW1573 cells assessed as accumulation at G0/G1 phase at 10 uM after 24 hrs by flow cytometry
# HBL-100 [9] = assay: Cell cycle arrest in human HBL100 cells assessed as accumulation at G2/M phase at 10 uM after 24 hrs by flow cytometry
# HBL-100 [10] = assay: Cell cycle arrest in human HBL100 cells assessed as accumulation at G2/M phase at 5 uM after 24 hrs by flow cytometry
# SW1573 [11] = assay: Cell cycle arrest in human SW1573 cells assessed as accumulation at S phase at 5 uM after 24 hrs by flow cytometry
# HeLa = assay: Antiproliferative activity against human HeLa cells after 48 hrs by SRB assay
# HBL-100 [12] = assay: Cell cycle arrest in human HBL100 cells assessed as accumulation at S phase at 5 uM after 24 hrs by flow cytometry
# HBL-100 [13] = assay: Cell cycle arrest in human HBL100 cells assessed as accumulation at G0/G1 phase at 5 uM after 24 hrs by flow cytometry
# SW1573 [14] = assay: Cell cycle arrest in human SW1573 cells assessed as accumulation at S phase at 10 uM after 24 hrs by flow cytometry
Compound,GI50 (WiDr) [µM],GI50 (SW1573 [1]) [µM],GI50 (A2780) [µM],GI50 (T47D) [µM],GI50 (HBL-100 [2]) [µM],Activity (SW1573 [3]) [%],Activity (SW1573 [4]) [%],Activity (HBL-100 [5]) [%],Activity (SW1573 [6]) [%],Activity (HBL-100 [7]) [%],Activity (SW1573 [8]) [%],Activity (HBL-100 [9]) [%],Activity (HBL-100 [10]) [%],Activity (SW1573 [11]) [%],GI50 (HeLa) [µM],Activity (HBL-100 [12]) [%],Activity (HBL-100 [13]) [%],Activity (SW1573 [14]) [%]
OC[C@H]1O[C@@H](O[C@@H]2OC=C[C@H]3[C@H](O)[C@@H]4O[C@]4(CO)[C@@H]23)[C@H](O)[C@@H](O)[C@@H]1O [CATALPOL],> 100,> 100,> 100,> 100,,,,,,,,,,,,,,
C[C@]1(O)C[C@@H](O)[C@]2(O)C=CO[C@@H](O[C@H]3O[C@H](CO)[C@@H](O)[C@H](O)[C@H]3O)[C@@H]21 [HARPAGIDE],> 100,> 100,> 100,> 100,,,,,,,,,,,,,,
CC(C)(C)[Si](OC[C@H]1O[C@H](O[C@@H]2OC=C[C@H]3[C@H](O[Si](c4ccccc4)(c4ccccc4)C(C)(C)C)[C@@H]4O[C@]4(CO[Si](c4ccccc4)(c4ccccc4)C(C)(C)C)[C@@H]23)[C@H](O)[C@@H](O)[C@@H]1O)(c1ccccc1)c1ccccc1,2,1.8,2.4,2.7,2.4,58,4,30,13,59,59,11,12,29,2.1,32,56,37
CC(=O)OC[C@H]1O[C@H](O[C@@H]2OC=C[C@H]3[C@H](OC(C)=O)[C@@H]4O[C@]4(COC(C)=O)[C@@H]23)[C@H](OC(C)=O)[C@@H](OC(C)=O)[C@@H]1OC(C)=O,> 100,> 100,60,> 100,,,,,,,,,,,,,,
O=C(OC[C@H]1O[C@H](O[C@@H]2OC=C[C@H]3[C@H](OC(=O)c4ccccc4)[C@@H]4O[C@]4(COC(=O)c4ccccc4)[C@@H]23)[C@H](OC(=O)c2ccccc2)[C@@H](OC(=O)c2ccccc2)[C@@H]1OC(=O)c1ccccc1)c1ccccc1,> 100,> 100,> 100,> 100,> 100,,,,,,,,,,> 100,,,
CC(C)(C)[Si](OC[C@H]1O[C@H](O[C@@H]2OC=C[C@H]3[C@H](O)[C@@H]4O[C@]4(CO[Si](c4ccccc4)(c4ccccc4)C(C)(C)C)[C@@H]23)[C@H](O)[C@@H](O)[C@@H]1O)(c1ccccc1)c1ccccc1,3.4,2.7,2.4,4.1,2.7,54,11,28,14,59,61,13,15,32,4.4,33,52,28
CC(C)(C)[Si](C)(C)OC[C@H]1O[C@H](O[C@@H]2OC=C[C@H]3[C@H](O)[C@@H]4O[C@]4(CO[Si](C)(C)C(C)(C)C)[C@@H]23)[C@H](O)[C@@H](O)[C@@H]1O,2.7,4.8,2.6,3.6,2.8,49,17,30,14,51,63,19,11,37,3.6,35,54,20
CC(C)(C)[Si](C)(C)OC[C@]12O[C@H]1[C@@H](O)[C@@H]1C=CO[C@@H](O[C@H]3O[C@H](CO)[C@@H](O)[C@H](O)[C@H]3O)[C@@H]12,81,88,36,87,52,,,,,,,,,,77,,,
